Results published in patent publication US6825230B2, “Spiro and dispiro 1,2,4-trixolane antimalarials” (Medicines for Malaria Venture MMV, priority 2002, dated 2004).
Values after ≈ are worked out from the molar mass of the structure shown.

What was measured:
[1] = system: chloroquine-resistant K1 strain of P. falciparum; assay: In vitro antimalarial semiautomated microdilution assay ([3H]-hypoxanthine incorporation), K1 strain; type: cell-based, Plasmodium falciparum
Procedure, shortened: (§1)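 Semiautomated microdilution against intraerythrocytic P. falciparum from asynchronous stock cultures, with growth tracked by [3H]-hypoxanthine incorporation. IC50 values were estimated by Logit regression analysis.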

[2] = system: chloroquine-sensitive NF54 strain of P. falciparum; assay: In vitro antimalarial semiautomated microdilution assay ([3H]-hypoxanthine incorporation), NF54 strain; type: cell-based, Plasmodium falciparum
Procedure, shortened: as §1

[3] = system: ANKA strain of P. berghei; assay: Single dose STI in vivo screen in infected mice; set-up: species or system Plasmodium berghei; details: for Survival (days) 10 mg/kg po: single 10 mg/kg po in 3% ethanol and 7% Tween 80; for Survival (days) 10 mg/kg po / Survival (days) 10 mg/kg SSV po / Survival (days) 10 mg/kg sc: untreated 6-7 days; for Activity (%) 10 mg/kg po: single 10 mg/kg po in 3% ethanol and 7% Tween 80 on day 1 post-infection; for Activity (%) 10 mg/kg po / Activity (%) 10 mg/kg SSV po / Activity (%) 10 mg/kg sc: percent reduction in parasitemia on day 3; for Survival (days) 10 mg/kg SSV po: single 10 mg/kg po in SSV; for Activity (%) 10 mg/kg SSV po: single 10 mg/kg po in standard suspending vehicle (SSV) on day 1 post-infection; for Survival (days) 10 mg/kg sc: single 10 mg/kg sc in 3% ethanol and 7% Tween 80; for Activity (%) 10 mg/kg sc: single 10 mg/kg sc in 3% ethanol and 7% Tween 80 on day 1 post-infection
[4] = system: ANKA strain of Plasmodium berghei; assay: Single dose ED50/ED90/ED99 determination in infected mice; type: in vivo; details: single dose po in SSV on day 1 post-infection, parasitemia day 3, nonlinear fitting; for ED50: Plasmodium berghei, po
Experimental: In the single dose ED50/ED98/ED99 determinations, Moro SPF or NMRI mice (group of three) infected with the ANKA strain of Plasmodium berghei were treated on day one post-infection. […] The SSV consists of 0.5% w/v CMC, 0.5% v/v benzyl alcohol, 0.4% v/v Tween 80, and 0.9% w/v sodium chloride in water. Antimalarial activity was measured by percent reduction in parasitemia on day three post-infection. The ED50/ED90 values were calculated by nonlinear fitting.
The ED50, ED90, and ED99 values were calculated by non-linear fitting with statistical program and were expressed in mg/kg.

[5] = system: Schistosoma mansoni 21-day-old schistosomules; assay: Effect on 21-day-old schistosomules in infected mice; type: in vivo; details: for % reduction of schistosomule growth at day 21 after per os application of 200 mg/kg, FWR (%): female worm reduction rate
Experimental: Mice were infected with 100 Schistosoma mansoni cercariae on day 21 post-treatment. Each group was treated per os with trioxolanes at a single dose of 200 mg/kg. […] All groups were killed 4 weeks after treatment and the liver and intestine were removed and separated. The liver and intestine were compressed and alive male and female worms could be seen and counted. The effect of the compounds was evaluated by mean total and female worm burden.

[6] = system: Schistosoma mansoni adult worms (49-day-old); assay: Effect on adult schistosomes (49-day-old) in infected mice; type: in vivo; details: single 400 mg/kg per os; for % reduction of adult worms growth at day 49 after per os application of 400 mg/kg, TWR (%): 49-day-old adults, total worm reduction rate; for Adult worms day 49, per os 400 mg/kg, DEAD WORM (%): percentage of dead worm in the liver
Experimental: Mice were infected with 100 Schistosoma mansoni cercariae on day 49 post-treatment. Each group was treated per os with OZ compounds at single doses of 200, 400, and 600 mg/kg. Untreated mice served as the control. All groups were killed 4 weeks after treatment and the liver and intestine were removed and separated. The liver and intestine were compressed and alive male and female worms could be seen and counted.

[7] = single 200 mg/kg per os, 21-day-old schistosomules
[8] = single 200 mg/kg per os, 21-day-old schistosomules, total worm reduction rate

## c1ncn(C[C@H]2CC[C@]3(CC2)OOC2(O3)C3CC4CC(C3)CC2C4)n1 (stereo partly drawn) [OZ177, cis-Adamantane-2-spiro-3′-8′-(1′H-1′,2′,4′-triazol-1′-ylmethyl)-1′,2′,4-trioxaspiro[4.5]decane]
[1]; chloroquine-resistant K1 strain, 72 h incubation
  IC50 (ng/ml) K1: 0.9 ng/mL (≈ 2.61 nM)
[2]; chloroquine-sensitive NF54 strain, 72 h incubation
  IC50 (ng/ml) NF54: 1.7 ng/mL (≈ 4.92 nM)
[3]; 10 mg/kg
  Survival (days) 10 mg/kg po: 12.3 days
  Activity (%) 10 mg/kg po: 99.91%
  Survival (days) 10 mg/kg SSV po: 12.7 days
  Activity (%) 10 mg/kg SSV po: 99.88%
  Survival (days) 10 mg/kg sc: 17.7 days
  Activity (%) 10 mg/kg sc: 99.91%
[4]
  ED50: 2.1 mg/kg
  ED90: 3.7 mg/kg
  ED99: 5.8 mg/kg

## CN1CCN(C(=O)C[C@H]2CC[C@]3(CC2)OOC2(O3)C3CC4CC(C3)CC2C4)CC1 (some centres unmarked) [OZ227]
[1]; Plasmodium falciparum, K1, 72 h, read-out: IC50 (ng/ml) K1, chloroquine-resistant K1 strain, 72 h incubation
  IC50: 0.2 ng/mL (≈ 0.494 nM)
[2]; Plasmodium falciparum, NF54, 72 h, read-out: IC50 (ng/ml) NF54, chloroquine-sensitive NF54 strain, 72 h incubation
  IC50: 0.2 ng/mL (≈ 0.494 nM)
[3]
  Survival (days) 10 mg/kg po: 8.3 days
  Activity (%) 10 mg/kg po: 99.68%
  Survival (days) 10 mg/kg SSV po: 9.3 days
  Activity (%) 10 mg/kg SSV po: 99.90%
  Survival (days) 10 mg/kg sc: 10.7 days
  Activity (%) 10 mg/kg sc: 99.84%
[4]
  ED50: 2.3 mg/kg
  ED90: 4.0 mg/kg
  ED99: 6.2 mg/kg

## CON=C1CCC2(CC1)OOC1(O2)C2CC3CC(C2)CC1C3 (centres unmarked) [OZ15]
[5]; [7]
  % reduction of schistosomule growth at day 21 after per os application of 200 mg/kg, FWR (%): 70%
[5]; [8]
  % reduction of schistosomule growth at day 21 after per os application of 200 mg/kg, TWR (%): 63%
[6]
  % reduction of adult worms growth at day 49 after per os application of 400 mg/kg, TWR (%): 0%
  Adult worms day 49, per os 400 mg/kg, DEAD WORM (%): 10%

## c1ccc2c(c1)COC1(CCC3(CC1)OOC1(O3)C3CC4CC(C3)CC1C4)OC2 (centres unmarked) [OZ31]
[5]; [7]
  % reduction of schistosomule growth at day 21 after per os application of 200 mg/kg, FWR (%): 63%
[5]; [8]
  % reduction of schistosomule growth at day 21 after per os application of 200 mg/kg, TWR (%): 60%
[6]
  % reduction of adult worms growth at day 49 after per os application of 400 mg/kg, TWR (%): 4/4%
  Adult worms day 49, per os 400 mg/kg, DEAD WORM (%): 4/4%

## CC(C)(C)C1CCC2(CC1)OOC1(O2)C2CC3CC(C2)CC1C3 (centres unmarked) [OZ18]
[5]; [7]
  % reduction of schistosomule growth at day 21 after per os application of 200 mg/kg, FWR (%): 9%
[5]; [8]
  % reduction of schistosomule growth at day 21 after per os application of 200 mg/kg, TWR (%): 12%
[6]
  % reduction of adult worms growth at day 49 after per os application of 400 mg/kg, TWR (%): 0/0%
  Adult worms day 49, per os 400 mg/kg, DEAD WORM (%): 0/0%

## O=[N+]([O-])c1ccc(NN=C2CCC3(CC2)OOC2(O3)C3CC4CC(C3)CC2C4)c([N+](=O)[O-])c1 (centres unmarked) [OZ29]
[5]; [7]
  % reduction of schistosomule growth at day 21 after per os application of 200 mg/kg, FWR (%): 20%
[5]; [8]
  % reduction of schistosomule growth at day 21 after per os application of 200 mg/kg, TWR (%): 28%
[6]
  % reduction of adult worms growth at day 49 after per os application of 400 mg/kg, TWR (%): 0/0%
  Adult worms day 49, per os 400 mg/kg, DEAD WORM (%): 0/0%

## C1CCC2(CC1)OOC1(O2)C2CC3CC(C2)CC1C3 (centres unmarked) [OZ03]
[5]; po, 200 mg/kg, 504 h
  % reduction of schistosomule growth at day 21 after per os application of 200 mg/kg, TWR (%): 74%
[5]; [7]
  % reduction of schistosomule growth at day 21 after per os application of 200 mg/kg, FWR (%): 74%
[6]
  % reduction of adult worms growth at day 49 after per os application of 400 mg/kg, TWR (%): 29%
  Adult worms day 49, per os 400 mg/kg, DEAD WORM (%): 8%

## C1C2CC3CC1CC(C2)C31OOC2(O1)C1CC3CC(C1)CC2C3 (centres unmarked) [OZ04]
[5]; [7]
  % reduction of schistosomule growth at day 21 after per os application of 200 mg/kg, FWR (%): 7%
[5]; [8]
  % reduction of schistosomule growth at day 21 after per os application of 200 mg/kg, TWR (%): 7%
[6]
  % reduction of adult worms growth at day 49 after per os application of 400 mg/kg, TWR (%): 0/0%
  Adult worms day 49, per os 400 mg/kg, DEAD WORM (%): 0/0%

## O=C1C2C3CC4C5C3C1C5C1(OOC3(O1)C1CC5CC(C1)CC3C5)C42 (centres unmarked) [OZ14]
[5]; [7]
  % reduction of schistosomule growth at day 21 after per os application of 200 mg/kg, FWR (%): 0%
[5]; [8]
  % reduction of schistosomule growth at day 21 after per os application of 200 mg/kg, TWR (%): 7%
[6]
  % reduction of adult worms growth at day 49 after per os application of 400 mg/kg, TWR (%): 0/0%
  Adult worms day 49, per os 400 mg/kg, DEAD WORM (%): 0/0%
